According to PMC3836994, “Killer Bee Molecules: Antimicrobial Peptides as Effector Molecules to Target Sporogonic Stages of Plasmodium” (PLoS Pathogens, 2013):
No end group written: not given here.

How the values were obtained:
[1] = test system: Anopheles gambiae Sua 4.0 cells; assay: Sua 4.0 mosquito cell growth (cell counts); assay type: cell-based; conditions: 25 µM AMP; for Average number of cells over 3 replicates, peptide: seeded 30×10^4/ml, mean of 3 experiments
[2] = test system: An. gambiae (Mali strain); assay: Mosquito longevity after blood feeds containing AMP; assay type: in vivo, Anopheles gambiae; conditions: for Significance of effect on longevity over 10 days: 50 µM AMP, Kaplan-Meier, Wilcoxon, peptide vs control; for Percent alive, peptide: over 10 days, 50 µM AMP in human blood, feeds on days 0 and 7, 3 or 4 replicates
Method: (§1) Female An. gambiae (Mali strain, 3–5 days old) were used to establish the effects of AMPs on mosquito longevity and fecundity in the absence of confounding factors introduced with parasite infection. Two hundred 3–6 day old females were fed on human O+ whole blood supplemented with 50 µM AMP (or water control, 1 ml total volume) via feeding chambers of a Hemotek membrane feeding system. Fully engorged mosquitoes were randomly moved into four separate cages, each containing 25 mosquitoes, to facilitate monitoring. Mortality rates were recorded daily for a 10-day period, and oviposition sites were provided on the second and third night post-feeding. A second blood feed containing the same AMP was administered 7 days later to mimic the likelihood that mosquitoes would feed at least twice in the field during the development of sporogonic stages of the malaria parasite. Oviposition sites were again provided to assess fecundity through the number of eggs laid as an average per surviving mosquito. Assays for each AMP were repeated in triplicate on separate generations of mosquitoes. Due to egg retention under experimental conditions, egg production is best measured by dissecting mosquitoes that have not been provided with an oviposition site. However, this is not a feasible method of determining fecundity when longevity is also being measured.

P. berghei ookinetes = assay: P. berghei ookinete viability in vitro (erythrosin B); assay type: cell-based, Plasmodium berghei; conditions: 30 min; for Reduction in ookinete viability: versus control
[3] = test system: An. gambiae (Mali strain); assay: Mosquito oviposition after blood feed containing AMP; assay type: in vivo, Anopheles gambiae; conditions: for Significance of effect on oviposition: 50 µM AMP, one-way ANOVA, peptide vs control; for Mean no. of eggs laid per mosquito, peptide: after first feed with 50 µM AMP, eggs laid over two nights, averaged per surviving mosquito, 3 or 4 replicates
Method: as §1

[4] = test system: An. gambiae (Mali strain); assay: Mosquito longevity after blood feeds containing AMP; assay type: in vivo, Anopheles gambiae; conditions: 50 µM AMP in blood on days 0 and 7; extended to 30 days
P. falciparum = assay: Field P. falciparum from gametocyte carriers membrane-fed to An. gambiae (Mali); assay type: in vivo, Plasmodium falciparum; conditions: 50 µM; for Oocyst prevalence (oocyst positive mosquitoes), peptide: blood of gametocyte carriers, progeny of field An. gambiae; for Oocyst intensity (mean number of oocysts per gut, range in parentheses), peptide: field parasites and mosquitoes
[5] = 3 hrs in culture, haemocytometer count of duplicate wells
[6] = 50 µM of single peptide, n = 150 ookinetes per treatment per replicate

Row | Sequence | Reduction in cell number (compared to control) ([1]; 3 hrs in culture) | Average number of cells over 3 replicates, peptide [1, 5] | Reduction in cell number (compared to control) ([1]; 24 hrs in culture) | Average number of cells over 3 replicates, peptide ([1]; 24 hrs in culture) | Reduction in cell number (compared to control) ([1]; 48 hrs in culture) | Average number of cells over 3 replicates, peptide ([1]; 48 hrs in culture) | Significance of effect on longevity over 10 days [2] | Percent alive, peptide [2] | Average ookinete viability (3 reps), peptide (P. berghei ookinetes; [6]) | Reduction in ookinete viability (P. berghei ookinetes; 50 µM of single peptide) | Significance of effect on oviposition [3] | Mean no. of eggs laid per mosquito, peptide [3] | Effect on longevity over 30 days (in words) [4] | Oocyst prevalence (oocyst positive mosquitoes), peptide (P. falciparum; Replicate 1) | Oocyst intensity (mean number of oocysts per gut, range in parentheses), peptide (P. falciparum; Replicate 1) | Oocyst prevalence (oocyst positive mosquitoes), peptide (P. falciparum; Replicate 2) | Oocyst intensity (mean number of oocysts per gut, range in parentheses), peptide (P. falciparum; Replicate 2) | further results
1 | AGYLLGKINLKALAALAKKILGGAGYLLGKINLKALAALAKKIL [TP10 dimer, TP10 (dimer)] | 20% | 240000 mL⁻¹ | 42% | 250000 mL⁻¹ | 58% | 260000 mL⁻¹ | N/S | 76% | 0% | 100% | N/S | 25 | significant reduction in survivorship | 9% (58) | <1 (0–4) | 3% (38) | <1 (0–1) | Oocyst prevalence (oocyst positive mosquitoes), peptide (P. falciparum; Replicate 3): 20% (49); Oocyst intensity (mean number of oocysts per gut, range in parentheses), peptide (P. falciparum; Replicate 3): <1 (0–2)
2 | KFPKFRRGIPFLFVGPSGKFPKFRRGIPFLFV [Vida 3 dimer] | 7% | 280000 mL⁻¹ | 62% | 170000 mL⁻¹ | 72% | 190000 mL⁻¹ | N/S | 68% | 4% | 96% | N/S | 43 | no significant long-term effects on longevity | 3% (63) | <1 (0–1) | 0% (45) | 0 | Reduction in cell number (compared to control) ([1]; 24 hrs in culture, listed as Vida3 dimer): 62%; Average ookinete viability (3 reps), peptide (P. berghei ookinetes; 100 µM of single peptide): 0%; Reduction in ookinete viability (P. berghei ookinetes; 100 µM of single peptide): 100%; Reduction in ookinete viability (P. berghei ookinetes; 100 µM of single peptide, listed as Vida3 dimer): 100%
